Earlier results, collected in patent US8445527B2, “Organic compounds and their uses” (Novartis AG, priority 2006, dated 2013).

Test system: HCV
Conditions: ribavirin alone

Question: Which results are given for `NC(=O)c1ncn([C@@H]2O[C@H](CO)[C@@H](O)[C@H]2O)n1` [Ribavirin, 1-β-D-ribofuranosyl-1-1,2,4-triazole-3-caroxamide]?
Answer: patients in whom serum amino transferase levels are reduced to normal: 40%; serum levels of HCV-RNA: does not lower
